Earlier results, collected in patent publication US10392388B2, “Meropenem derivatives and uses thereof” (Kala Pharmaceuticals, Inc., priority 2013, dated 2019).

- MIC90 (Pseudomonas aeruginosa): about 8 μg/mL
- water solubility: > 1000 µg/mL
Structure (SMILES): C[C@@H](O)[C@H]1C(=O)N2C(C(=O)O)=C(S[C@@H]3CN[C@H](C(=O)N(C)C)C3)[C@H](C)[C@H]12 [Meropenem, meropenem]
